Results on five compounds are retold here after patent US4730054A, “Imidazole thieno-benzothiepins” (SPOFA, Spojene Podinky Pro Zdravotnickou Vyrobu, priority 1985, dated 1988).

One series has as its system S pastorianus. Nature of the series: MIC by standard dilution method in a liquid nutrient medium. It counts as cell-based, Saccharomuces pastorianus. To be noted: inoculum 10^4 CFU/ml, read-out: Antimycotic Activity (MIC). An excerpt:
(§1) For example, the new compounds were compared in vitro with the known antimycotic agents clotrimazole, miconazole and ketoconazole, in order to determine their minimum inhibitive concentrations (MICs). See, Fromtling, R. A., "Imidazoles as medically important antifungal agents: an overview," 20 Drugs of Today No. 7, 328-331 (1984); Burgess & Bodey, "Clotrimazole," 2 Antimicrobial Agents and Chemotherapy No. 6, 423-6 (1972). […] The test innoculum size was 10^6 CFU/ml for Aspergillus niger and Trichophyton mentagrophytes and 10^4 CFU/ml for Saccharomuces pastorianus and Candida albicans, where CFU is the standard abbreviation for microbial cell counts.

The next series deals with A niger. The series is described as above. The format is cell-based. Particulars: Aspergillus niger, inoculum 10^6 CFU/ml, read-out: Antimycotic Activity (MIC).
Excerpt: as §1

The subject of a further series is C albicans. The series is described as above. To be noted: Candida albicans, inoculum 10^4 CFU/ml, read-out: Antimycotic Activity (MIC). The format is cell-based.
Excerpt: as §1

A further series concerns T mentagrophytes. The series is described as above. Particulars: Trichophyton mentagrophytes, inoculum 10^6 CFU/ml, read-out: Antimycotic Activity (MIC). It counts as cell-based.
Excerpt: as §1

Series [1] concerns clinical strain isolates of pathogenic molds (a total of 16). Description: Sensitivity of clinical mold strain isolates, dilution method on Sabouraud agar. Particulars: 16 clinical mold strains. The format is cell-based. The protocol: (§2) The sensitivity of a larger number of clinical strain isolates of pathogenic molds (a total of 16) as well as yeasts and related microorganisms (a total of 21) when exposed to the inventive compounds was determined using the dilution method on Sabouraud agar. Thus, the experimental MIC values for mold strains exposed to Compound Ia were from 0.7 to 100 mg/l.

For series [2], the system named is pathogenic molds as well as yeasts and related microorganisms. Description: Effect of addition of serum or blood to the agar test plate on antimycotic effect, Sabouraud agar. It counts as cell-based. To be noted: for effect of addition of serum or blood to the agar test plate: in comparison to the protein-free agar culture values; for potency in the presence of biological protein substances: such as blood constituents. The protocol: as §2

The subject of a further series is Candida albicans. Description: Vaginal candidosis induced experimentally in mice, intravaginal administration. The format is in vivo, Candida albicans (in mice). Particulars: for inhibition of the test culture: ten days. The protocol: The in vivo evaluation of antimycotic activity was performed using a model of vaginal candidosis induced experimentally in mice by Candida albicans. The test substances were administered intravaginally over a period of ten days in the form of homogenized suspensions of appropriately chosen concentrations in a 0.5% aqueous hydroxyethylcellulose solution. The results were evaluated both immediately upon administration and after one and two weeks.

The subject of series [3] is about forty pathogenic yeast and mold strains. Description: MIC in dilution tests on Sabouraud agar, about forty pathogenic yeast and mold strains. It counts as cell-based. The protocol: The sensitivity of a larger number of clinical strain isolates of pathogenic molds (a total of 16) as well as yeasts and related microorganisms (a total of 21) when exposed to the inventive compounds was determined using the dilution method on Sabouraud agar.

In series [4] the test system is typical inducers of dermal mycoses. Nature of the series: Antimycotic activity against typical inducers of dermal mycoses compared with clotrimazole and miconazole. It counts as cell-based. The protocol: (§3) For example, the new compounds were compared in vitro with the known antimycotic agents clotrimazole, miconazole and ketoconazole, in order to determine their minimum inhibitive concentrations (MICs). See, Fromtling, R. A., "Imidazoles as medically important antifungal agents: an overview," 20 Drugs of Today No. 7, 328-331 (1984); Burgess & Bodey, "Clotrimazole," 2 Antimicrobial Agents and Chemotherapy No. 6, 423-6 (1972). MIC values were determined by the standard dilution method in a liquid nutrient medium, primarily with the following yeast and mold species typically used in preliminary antimycotic screening: Saccharomuces pastorianus, Candida albicans, Trichophyton mentagrophytes, and Aspergillus niger. The test innoculum size was 10^6 CFU/ml for Aspergillus niger and Trichophyton mentagrophytes and 10^4 CFU/ml for Saccharomuces pastorianus and Candida albicans, where CFU is the standard abbreviation for microbial cell counts.

Another series has as its system Aspergillus strains. Description: Antimycotic activity against Aspergillus strains compared with clotrimazole and miconazole. It counts as cell-based. The protocol: as §3
A short description of series [5]: Standard test for mutagenity. Particulars: standard tests.
Series [6] in a line: Standard test for cancerogenity. To be noted: standard tests.
Series [7] in a line: Standard test for teratogenity. To be noted: standard tests.
Series [8] in a line: Standard test for foetal damage. Particulars: standard tests.
Series [9] can be described thus: Standard test for dermal irritation. It counts as in vivo. To be noted: standard tests.
Series [10] in a line: Standard test for vaginal irritation. The format is in vivo. To be noted: standard tests.
Series [11] is described as follows: Chronic (one month) toxicity on intravaginal administration, rat. The format is in vivo.
Series [12] in a line: Chronic (one month) toxicity on intravaginal administration, dog. It counts as in vivo.
The nature of series [13]: Acute toxicity LD50 in rats p.o. Particulars: for LD50: rat, in vivo, po.

Structures are written as SMILES. Values after ≈ are worked out from the molar mass of the structure shown.

Consider `c1ccc2c(c1)CSc1sccc1C2n1ccnc1` (centres unmarked) [Compound Ia, 4-(1-imidazolyl)-4,9-dihydrothieno(2,3-c)-2-benzothiepin], for which the MIC (usually the lowest concentration that inhibits growth of the organism) in the series with S pastorianus is 25 µg/mL (≈ 87.9 µM); in the series with A niger, 0.7 µg/mL (≈ 2.46 µM); in the series on C albicans, 25 µg/mL (≈ 87.9 µM); in the series with T mentagrophytes, 1.5 µg/mL (≈ 5.27 µM); in series [1] it was 0.7 to 100 µg/mL (≈ 2.46 to 352 µM). Also, the “effect of addition of serum or blood to the agar test plate” value (from here on “effect of addition of serum or blood”) in series [2] is reported as “doubled the effect”. For the same compound, in series [2], the “potency in the presence of biological protein substances” value is recorded as “actually improved”. Moreover, in the series on Candida albicans (intravaginal, concentration of 7.5%), the “prophylactic (preventative) effect” value is “significant prophylactic (preventative) effect”. The “inhibition of the test culture” value was “complete inhibition” in the series with Candida albicans (intravaginal, concentration of 7.5%, therapy starting 24 hours prior to infection) and “complete inhibition” in the series on Candida albicans (intravaginal, concentration of 7.5%, therapy starting simultaneously with infection). Besides, the “results when therapy was delayed” value in the series on Candida albicans (intravaginal, therapy delayed until 24 hours after infection) is “somewhat less favorable”.
With `Clc1ccccc1C(c1ccccc1)(c1ccccc1)n1ccnc1` [Clotrimazole], the MIC was 3.1 µg/mL (≈ 8.99 µM) with S pastorianus; 3.1 µg/mL (≈ 8.99 µM) with A niger; 0.7 µg/mL (≈ 2.03 µM) in the series on C albicans; 0.03 µg/mL (≈ 0.087 µM) in the series with T mentagrophytes; 0.01 to 1.5 µg/mL (≈ 0.029 to 4.35 µM) in [1]. Further, in series [2], the “effect of addition of serum or blood” value is “diminished the effect of clotrimazole about one third”.
With `CC(=O)N1CCN(c2ccc(OCC3COC(Cn4ccnc4)(c4ccc(Cl)cc4Cl)O3)cc2)CC1` (centres unmarked) [Ketoconazole], the MIC is 50 µg/mL (≈ 94.1 µM) in the series with S pastorianus, 12.5 µg/mL (≈ 23.5 µM) in the series with A niger, 0.03 µg/mL (≈ 0.0565 µM) in the series with C albicans and 0.7 µg/mL (≈ 1.32 µM) in the series with T mentagrophytes.
As for `Clc1ccc2c(c1)C(n1ccnc1)c1ccsc1SC2` (centres unmarked) [Compound Ib, 6-chloro-4-(1-imidazolyl)-4,9-dihydrothieno(2,3-c)-2-benzothiepin], the MIC is 12.5 µg/mL (≈ 39.2 µM) in the series with S pastorianus; 0.03 µg/mL (≈ 0.0941 µM) in the series with A niger; 3.1 µg/mL (≈ 9.72 µM) in the series on C albicans; 0.03 µg/mL (≈ 0.0941 µM) in the series with T mentagrophytes; 0.01 to 1.5 µg/mL (≈ 0.0314 to 4.7 µM) in series [1]. For the same compound, in series [2], the “effect of addition of serum or blood” value was “had no effect”. Also, in series [2], the “potency in the presence of biological protein substances” value is listed as “not diminished”. In the series with Candida albicans (topical application), the “therapeutic effect on vaginal Candida albicans infections” value is on record as “beneficial therapeutic effect”. Also, in series [3], the “Minimum MIC values” lay in the range of 0.01 to 25 µg/mL. The “level of activity against typical inducers of dermal mycoses” value in series [4] is “similarly potent level of activity”. Besides, the “activity against Aspergillus strains” value with Aspergillus strains is given as “notably increased activity”. Besides, in series [5], the mutagenity entry is listed as “negative”. Besides, in series [6], the cancerogenity entry is given as “negative”. The teratogenity result in series [7] is “negative”. Besides, the foetal damage result in [8] was “negative”. The dermal irritation result in [9] is “negative”. Further, the vaginal irritation result in [10] is given as “negative”. Also, the “chronic (one month) toxicity” value in series [11] and in [12] was “negative” in each case. In addition, the LD50 (as a rule, the dose expected to kill half of the subjects tested) came to 1120 mg/kg in series [13] (LD50, female rats) and 1570 mg/kg in [13] (LD50, male rats). Moreover, in series [13] (rats), the toxicity entry is given as “only slightly toxic”.
Consider `Clc1ccc(COC(Cn2ccnc2)c2ccc(Cl)cc2Cl)c(Cl)c1` (centres unmarked) [Miconazole], for which the MIC in the series with S pastorianus came out at 6.2 µg/mL (≈ 14.9 µM); in the series with A niger it was 1.5 µg/mL (≈ 3.6 µM); with C albicans it was 0.7 µg/mL (≈ 1.68 µM); in the series with T mentagrophytes it was 0.03 µg/mL (≈ 0.0721 µM).
